In ChEMBL document CHEMBL4152276, “Design, synthesis and biological evaluation of N-phenyl-(2,4-dihydroxypyrimidine-5-sulfonamido)benzoyl hydrazide derivatives as thymidylate synthase (TS) inhibitors and as potential antitumor drugs” (Eur J Med Chem, 2018):
pIC50: −log10 of the molar value. Active and inactive are the calls of the source. No cut-off for these calls is given here.

Experiments:
A549 [1] = assay: Induction of apoptosis in human A549 cells assessed as necrotic cells at 1.5 uM after 24 hrs by annexin V-FITC/propidium iodide staining-based flow cytometric method (reference value: 0%); format: functional
A549 [2] = assay: Induction of apoptosis in human A549 cells assessed as necrotic cells at 0.5 uM after 24 hrs by annexin V-FITC/propidium iodide staining-based flow cytometric method (reference value: 0%); format: functional
A549 [3] = assay: Induction of apoptosis in human A549 cells assessed as decrease in ratio of Bcl2/Bax at 3 uM after 24 hrs by Western blot method relative to control; format: functional
A549 [4] = assay: Antiproliferative activity against human A549 cells at 3.2 uM after 24 hrs by MTT assay relative to control; format: functional
A549 [5] = assay: Induction of apoptosis in human A549 cells assessed as early apoptotic cells at 1.5 uM after 24 hrs by annexin V-FITC/propidium iodide staining-based flow cytometric method (reference value: 1.2%); format: functional
A549 [6] = assay: Induction of apoptosis in human A549 cells assessed as late apoptotic cells at 1 uM after 24 hrs by annexin V-FITC/propidium iodide staining-based flow cytometric method (reference value: 1.1%); format: functional
A549 [7] = assay: Induction of apoptosis in human A549 cells assessed as viable cells at 1 uM after 24 hrs by annexin V-FITC/propidium iodide staining-based flow cytometric method (reference value: 97.7%); format: functional; settings: A549, 24 h, read-out: Activity
[8] = Selectivity index, ratio of CC50 for human IOSE80 cells to IC50 for human A549 cells; format: toxicity; settings: IOSE80 cells (CC50) versus A549 cells (IC50)
A549 [9] = assay: Induction of apoptosis in human A549 cells assessed as necrotic cells at 1 uM after 24 hrs by annexin V-FITC/propidium iodide staining-based flow cytometric method (reference value: 0%); format: functional
A549 [10] = assay: Induction of apoptosis in human A549 cells assessed as viable cells at 1.5 uM after 24 hrs by annexin V-FITC/propidium iodide staining-based flow cytometric method (reference value: 97.7%); format: functional; settings: A549, 24 h, read-out: Activity
A549 [11] = assay: Induction of apoptosis in human A549 cells assessed as early apoptotic cells at 0.5 uM after 24 hrs by annexin V-FITC/propidium iodide staining-based flow cytometric method (reference value: 1.2%); format: functional
MDA-MB-231 = assay: Antiproliferative activity against human MDA-MB-231 cells after 24 hrs by MTT assay; format: functional, cell-based; settings: MDA-MB-231, 24 h
A549 [12] = assay: Antiproliferative activity against human A549 cells at 0.512 uM after 24 hrs by MTT assay relative to control; format: functional
[13] = Selectivity index, ratio of CC50 for human GES1 cells to IC50 for human A549 cells; format: toxicity; settings: GES1 cells (CC50) versus A549 cells (IC50)
A549 [14] = assay: Induction of apoptosis in human A549 cells assessed as increase in cleaved caspase-3 levels at 0.5 to 3 uM after 24 hrs by Western blot method; format: functional, cell-based
A549 [15] = assay: Antiproliferative activity against human A549 cells at 8 uM after 24 hrs by MTT assay relative to control; format: functional
A549 [16] = assay: Antiproliferative activity against human A549 cells at 20 uM after 24 hrs by MTT assay relative to control; format: functional
A549 [17] = assay: Induction of apoptosis in human A549 cells assessed as late apoptotic cells at 3 uM after 24 hrs by annexin V-FITC/propidium iodide staining-based flow cytometric method (reference value: 1.1%); format: functional
A549 [18] = assay: Induction of apoptosis in human A549 cells assessed as viable cells at 3 uM after 24 hrs by annexin V-FITC/propidium iodide staining-based flow cytometric method (reference value: 97.7%); format: functional; settings: A549, 24 h, read-out: Activity
A549 [19] = assay: Induction of apoptosis in human A549 cells assessed as late apoptotic cells at 0.5 uM after 24 hrs by annexin V-FITC/propidium iodide staining-based flow cytometric method (reference value: 1.1%); format: functional
A549 [20] = assay: Induction of apoptosis in human A549 cells assessed as decrease in ratio of Bcl2/Bax at 1.5 uM after 24 hrs by Western blot method relative to control; format: functional
A549 [21] = assay: Induction of apoptosis in human A549 cells assessed as necrotic cells at 3 uM after 24 hrs by annexin V-FITC/propidium iodide staining-based flow cytometric method (reference value: 0%); format: functional
SGC-7901 = assay: Antiproliferative activity against human SGC7901 cells after 24 hrs by MTT assay; format: functional, cell-based; settings: SGC-7901, 24 h
A549 [22] = assay: Induction of apoptosis in human A549 cells assessed as early apoptotic cells at 3 uM after 24 hrs by annexin V-FITC/propidium iodide staining-based flow cytometric method (reference value: 1.2%); format: functional
A549 [23] = assay: Induction of apoptosis in human A549 cells assessed as upregulation of bax protein expression at 0.5 to 3 uM after 24 hrs by Western blot method; format: functional, cell-based
A549 [24] = assay: Induction of apoptosis in human A549 cells assessed as decrease in ratio of Bcl2/Bax at 1 uM after 24 hrs by Western blot method relative to control; format: functional
[25] = Selectivity index, ratio of CC50 for HPAEpiC to IC50 for human A549 cells; format: toxicity; settings: HPAEpiC cells (CC50) versus A549 cells (IC50)
A549 [26] = assay: Induction of apoptosis in human A549 cells assessed as viable cells at 0.5 uM after 24 hrs by annexin V-FITC/propidium iodide staining-based flow cytometric method (reference value: 97.7%); format: functional; settings: A549, 24 h, read-out: Activity
[27] = Selectivity index, ratio of CC50 for human HTB125 cells to IC50 for human A549 cells; format: toxicity; settings: HTB125 cells (CC50) versus A549 cells (IC50)
A549 [28] = assay: Antiproliferative activity against human A549 cells at 1.28 uM after 24 hrs by MTT assay relative to control; format: functional
OVCAR-3 = assay: Antiproliferative activity against human OVCAR3 cells after 24 hrs by MTT assay; format: functional, cell-based; settings: OVCAR-3, 24 h
A549 [29] = assay: Antiproliferative activity against human A549 cells after 24 hrs by MTT assay; format: functional, cell-based; settings: A549, 24 h
A549 [30] = assay: Induction of apoptosis in human A549 cells assessed as early apoptotic cells at 1 uM after 24 hrs by annexin V-FITC/propidium iodide staining-based flow cytometric method (reference value: 1.2%); format: functional
A549 [31] = assay: Induction of apoptosis in human A549 cells assessed as late apoptotic cells at 1.5 uM after 24 hrs by annexin V-FITC/propidium iodide staining-based flow cytometric method (reference value: 1.1%); format: functional
A549 [32] = assay: Induction of apoptosis in human A549 cells assessed as decrease in ratio of Bcl2/Bax at 0.5 uM after 24 hrs by Western blot method relative to control; format: functional

**Q.** Which Activity (A549 [1]) does the source give for `O=C(NNC(=O)c1ccccc1NS(=O)(=O)c1cnc(O)nc1O)c1cccc(Cl)c1` here?
**A.** 0%

**Q.** And the Activity (A549 [2])?
**A.** 0.1%

**Q.** What about the “fold change (FC)” value (A549 [3]) of the same compound?
**A.** 0.17

**Q.** And the Activity (A549 [4])?
**A.** 55.39%

**Q.** And the Activity (A549 [5])?
**A.** 19.6%

**Q.** And the Activity (A549 [6])?
**A.** 2.7%

**Q.** And the viability at 1 µM (A549 [7])?
**A.** 87.4%

**Q.** And the selectivity ratio [8]?
**A.** 11.3

**Q.** And the Activity (A549 [9])?
**A.** 0.1%

**Q.** And the viability at 1.5 µM (A549 [10])?
**A.** 77.9%

**Q.** And the Activity (A549 [11])?
**A.** 6.9%

**Q.** What about the pIC50 (MDA-MB-231) of the same compound?
**A.** 5.35

**Q.** What about the Activity (A549 [12]) of the same compound?
**A.** 35.83%

**Q.** And the selectivity ratio [13]?
**A.** 14.2

**Q.** And the Activity (A549 [14])?
**A.** Active

**Q.** And the Activity (A549 [15])?
**A.** 66.28%

**Q.** And the Activity (A549 [16])?
**A.** 82.54%

**Q.** What about the Activity (A549 [17]) of the same compound?
**A.** 3.9%

**Q.** And the viability at 3 µM (A549 [18])?
**A.** 60.2%

**Q.** And the Activity (A549 [19])?
**A.** 1.6%

**Q.** What about the “fold change (FC)” value (A549 [20]) of the same compound?
**A.** 0.3

**Q.** What about the Activity (A549 [21]) of the same compound?
**A.** 0.4%

**Q.** What about the pIC50 (SGC-7901) of the same compound?
**A.** 5.74

**Q.** What about the Activity (A549 [22]) of the same compound?
**A.** 35.5%

**Q.** And the Activity (A549 [23])?
**A.** Active

**Q.** And the “fold change (FC)” value (A549 [24])?
**A.** 0.54

**Q.** And the selectivity ratio [25]?
**A.** 16.7

**Q.** And the viability at 0.5 µM (A549 [26])?
**A.** 91.4%

**Q.** And the selectivity ratio [27]?
**A.** 5.73

**Q.** And the Activity (A549 [28])?
**A.** 51.21%

**Q.** What about the pIC50 (OVCAR-3) of the same compound?
**A.** 5.68

**Q.** And the pIC50 (A549 [29])?
**A.** 5.90

**Q.** And the Activity (A549 [30])?
**A.** 9.8%

**Q.** And the Activity (A549 [31])?
**A.** 2.5%

**Q.** What about the “fold change (FC)” value (A549 [32]) of the same compound?
**A.** 0.8

**Q.** What does the source list for `Nc1nc2[nH]cc(CCc3ccc(C(=O)N[C@@H](CCC(=O)O)C(=O)O)cc3)c2c(=O)[nH]1` [PEMETREXED]?
**A.** Activity (A549 [4]): 56.2%; selectivity ratio [8]: 3.59; pIC50 (MDA-MB-231): 5.41; Activity (A549 [12]): 22.93%; selectivity ratio [13]: 3.22; Activity (A549 [15]): 61.82%; Activity (A549 [16]): 64.42%; pIC50 (SGC-7901): 5.04; selectivity ratio [25]: 7.51; selectivity ratio [27]: 6.02; Activity (A549 [28]): 49.43%; pIC50 (OVCAR-3): 5.16; pIC50 (A549 [29]): 5.48
